Test results published in paper PMC5471521, “Novel selective β1-adrenoceptor antagonists for concomitant cardiovascular and respiratory disease” (The FASEB Journal, 2017).
pIC50, pKd, pKi: −log10 of the molar value.

Assays:
human β2-AR = biological target: T1, human β2-AR (Homo sapiens, UniProt P07550); assay: 3H-CGP12177 whole-cell binding in CHO-β2 cells; conditions: mean ± SEM, cells marked ^a are apparent log Kd (specific binding not fully inhibited)
T1 construct: expressed in transfected cells

rat β1-AR = biological target: T2, rat β1-AR (Rattus norvegicus, UniProt P18090); assay: 3H-CGP12177 whole-cell binding in transiently transfected CHO cells; conditions: for Rat β1 vs. β2 selectivity Kd,ratβ2/Kd,ratβ1: from 3H-CGP12177 whole-cell binding; for Kd: transiently transfected CHO cells, mean ± SEM, read-out: Rat β1-AR Log Kd (converted)
T2 construct: host or cells: CHO cells, transient transfection
Experimental: (§1) Human bronchial smooth muscle cells were obtained from Lonza (Basel, Switzerland) and grown in manufacturer media. Rat β-AR binding experiments (DNA from cDNA Resource Centre, Bloomsburg, PA, USA) were conducted by using transiently transfected CHO cells ([44]).
(§2) Propranolol (10 μM) defined nonspecific binding. Kd values were derived from IC50 values by using the Cheng-Prusoff equation as previously described ([11]).

rat β2-AR = biological target: T3, rat β2-AR (Rattus norvegicus, UniProt P10608); assay: as above; conditions: transiently transfected CHO cells, mean ± SEM; cells marked ^a are apparent log Kd; read-out: Rat β2-AR Log Kd (converted)
T3 construct: host or cells: CHO cells, transient transfection
Experimental: as §1, §2

human β1-AR = biological target: T4, human β1-AR (Homo sapiens, UniProt P08588); assay: Direct measurement of ERK1/2 MAPK phosphorylation in CHO-β1 cells; type: cell-based; conditions: 3 and 10 μM, 5- and 10-min incubations
T4 construct: expressed in transfected cells
Experimental: MAPK stimulation was examined by using the AlphaScreen Surefire ERK1/2 T202/Y204 assay kit from TGR Biosciences (PerkinElmer, Waltham, MA, USA), which gives a direct quantitative readout of ERK1/2 (p42/44) MAPK phosphorylation. Confluent cells (half-well 96-well plates) were serum starved for 24 h, then the assay was performed per manufacturer instructions (5- and 10-min incubations at 37°C: ligand concentrations of 3 and 10 μM). Phorbol 12,13-dibutyrate (1 μM) was used as a positive control.

5-HT2A = 5-HT2A (Homo sapiens, UniProt P28223); assay: Cerep receptor radioligand-binding assay; conditions: for pKi: concentration-response, Cheng-Prusoff
Experimental: […]; Ki (inhibition constant) was calculated by using the Cheng-Prusoff equation from the mean of duplicate determinations in cell-based receptor radioligand-binding assays. Cerep in vitro pharmacology profiling service was used (see the Supplemental Data for a list of the assays used).

[1] = Metabolic stability, human hepatocytes; type: in vitro ADME; conditions: cryopreserved hepatocytes
Experimental: NDD-713.HCl and -825.HCl were incubated (0.02, 0.1, or 0.5 μM at 37°C, 120 min) with human (XenoTech, Kansas City, KS, USA) or rat liver microsomes (BD Biosciences, Brea, CA, USA) at 0.4 mg/ml protein concentration. Metabolic reaction was initiated by addition of NADPH-regenerating system or NADPH-regenerating system with uridine diphosphate glucuronic acid. Samples were quenched at time points by acetonitrile addition. Control samples, which contained neither NADPH, nor uridine diphosphate glucuronic acid, were monitored for degradation. Compound concentrations were determined by ultraperformance LC-MS (UPLC-MS) relative to calibration standards that were prepared in quenched liver microsomes and fitted to exponential decay functions to determine first-order rate constants (k) for substrate depletion. These were used to calculate in vitro intrinsic clearance (CLint) values: CLint = k/microsomal protein content (0.4 mg protein/ml). Metabolic stability assays that used rat liver cytosol (BD Biosciences), human cryopreserved hepatocytes, or rat hepatocytes were carried out similarly. Average viable cell concentrations were determined by Trypan Blue exclusion methods (in the absence of test compounds). Studies were carried out by CDCO.

CYP1A2 = biological target: T5, CYP1A2 (Homo sapiens, UniProt P05177); assay: P450 inhibition in human liver microsomes; type: in vitro ADME; conditions: 0.25–20 μM, hydrochloride salts used
T5 construct: in human liver microsomes (batch 34689 for CYP1A2 and CYP3A4; batch 0910251 for CYP2C9, CYP2C19, and CYP2D6); tissue batch 34689; host or cells: human liver microsomes
Experimental: (§3) Concentrations of NDD-713.HCl and -825.HCl (0.25–20 μM) were incubated in triplicate (37°C for 4–40 min) with substrates specific for individual P450 isoforms (see Supplemental Data for full details) in human liver microsomes (batch 34689 for CYP1A2 and CYP3A4; batch 0910251 for CYP2C9, CYP2C19, and CYP2D6) at protein concentrations of 0.4 mg/ml (CYP1A2, CYP2C9, CYP2D6 and CYP3A4/5) or 1.0 mg/ml (CYP2C19) and a total organic solvent concentration <1%. Reaction was initiated by addition of NADPH-regenerating system and samples were quenched by addition of ice-cold acetonitrile, which contained 0.15 μg/ml diazepam as an internal standard, before determination of the concentration of specific metabolites by LC-MS. Compound IC50 values (and positive control) for each P450 isoform was assessed according to %reduction in formation of the specific metabolite (maximal metabolite formation occurring in the absence of inhibitor). […] Control samples were included to confirm that the LC-MS assay was not affected by test compounds (and potential metabolites). Studies were carried out by CDCO.

CYP2C19 = biological target: T6, CYP2C19 (Homo sapiens, UniProt P33261); assay: P450 inhibition in human liver microsomes; type: in vitro ADME; conditions: 0.25–20 μM, hydrochloride salts used
T6 construct: in human liver microsomes; tissue batch 0910251; host or cells: human liver microsomes
Experimental: as §3

CYP2C9 = biological target: T7, CYP2C9 (Homo sapiens, UniProt P11712); assay: P450 inhibition in human liver microsomes; type: in vitro ADME; conditions: 0.25–20 μM, hydrochloride salts used
T7 construct: in human liver microsomes; tissue batch 0910251; host or cells: human liver microsomes
Experimental: as §3

CYP3A4/5 = assay: P450 inhibition in human liver microsomes; type: in vitro ADME; conditions: 0.25–20 μM, hydrochloride salts used
Experimental: as §3

CYP2D6 = CYP2D6 (Homo sapiens, UniProt P10635); assay: P450 inhibition in human liver microsomes; type: in vitro ADME; set-up: in human liver microsomes (batch 34689 for CYP1A2 and CYP3A4; batch 0910251 for CYP2C9, CYP2C19, and CYP2D6); tissue batch 0910251; host or cells: human liver microsomes; conditions: 0.25–20 μM, hydrochloride salts used
Experimental: as §3

Chain of 5-HT2A (P28223 whole entry): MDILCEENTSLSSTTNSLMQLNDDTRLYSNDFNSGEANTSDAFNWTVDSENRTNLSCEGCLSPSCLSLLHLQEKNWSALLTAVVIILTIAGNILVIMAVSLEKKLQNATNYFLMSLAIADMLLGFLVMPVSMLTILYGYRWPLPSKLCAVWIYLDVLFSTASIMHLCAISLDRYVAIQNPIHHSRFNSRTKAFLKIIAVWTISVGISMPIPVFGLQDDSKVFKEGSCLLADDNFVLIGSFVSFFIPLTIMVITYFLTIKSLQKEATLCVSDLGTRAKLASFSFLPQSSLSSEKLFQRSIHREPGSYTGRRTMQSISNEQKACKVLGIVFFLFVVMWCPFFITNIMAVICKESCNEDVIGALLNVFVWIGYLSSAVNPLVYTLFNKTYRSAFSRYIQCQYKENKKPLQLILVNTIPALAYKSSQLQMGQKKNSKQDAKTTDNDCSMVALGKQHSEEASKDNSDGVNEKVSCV
T2 sequence (P18090 whole entry): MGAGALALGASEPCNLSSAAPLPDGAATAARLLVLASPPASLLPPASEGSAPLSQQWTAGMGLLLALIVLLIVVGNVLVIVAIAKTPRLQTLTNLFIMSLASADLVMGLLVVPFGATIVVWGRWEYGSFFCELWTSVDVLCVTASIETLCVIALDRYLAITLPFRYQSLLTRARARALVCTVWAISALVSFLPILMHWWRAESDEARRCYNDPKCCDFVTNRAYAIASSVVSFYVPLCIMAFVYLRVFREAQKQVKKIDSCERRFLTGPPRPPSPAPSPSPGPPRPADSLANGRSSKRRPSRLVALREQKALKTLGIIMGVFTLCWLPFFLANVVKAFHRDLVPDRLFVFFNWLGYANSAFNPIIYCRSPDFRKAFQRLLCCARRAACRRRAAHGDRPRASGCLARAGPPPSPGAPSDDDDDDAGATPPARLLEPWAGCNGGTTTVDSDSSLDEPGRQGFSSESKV
T3 sequence (P10608 whole entry): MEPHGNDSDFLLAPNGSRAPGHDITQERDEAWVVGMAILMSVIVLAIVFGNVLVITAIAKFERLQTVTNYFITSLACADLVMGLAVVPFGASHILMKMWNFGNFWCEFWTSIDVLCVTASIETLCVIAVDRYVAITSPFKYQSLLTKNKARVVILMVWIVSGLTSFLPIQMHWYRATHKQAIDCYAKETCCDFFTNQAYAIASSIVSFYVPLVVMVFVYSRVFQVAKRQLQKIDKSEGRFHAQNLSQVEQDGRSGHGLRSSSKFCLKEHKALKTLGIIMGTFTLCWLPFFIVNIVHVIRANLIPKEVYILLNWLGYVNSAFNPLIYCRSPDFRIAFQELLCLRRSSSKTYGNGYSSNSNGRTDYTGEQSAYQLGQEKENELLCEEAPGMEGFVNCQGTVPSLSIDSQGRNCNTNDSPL
T7 sequence (P11712 whole entry): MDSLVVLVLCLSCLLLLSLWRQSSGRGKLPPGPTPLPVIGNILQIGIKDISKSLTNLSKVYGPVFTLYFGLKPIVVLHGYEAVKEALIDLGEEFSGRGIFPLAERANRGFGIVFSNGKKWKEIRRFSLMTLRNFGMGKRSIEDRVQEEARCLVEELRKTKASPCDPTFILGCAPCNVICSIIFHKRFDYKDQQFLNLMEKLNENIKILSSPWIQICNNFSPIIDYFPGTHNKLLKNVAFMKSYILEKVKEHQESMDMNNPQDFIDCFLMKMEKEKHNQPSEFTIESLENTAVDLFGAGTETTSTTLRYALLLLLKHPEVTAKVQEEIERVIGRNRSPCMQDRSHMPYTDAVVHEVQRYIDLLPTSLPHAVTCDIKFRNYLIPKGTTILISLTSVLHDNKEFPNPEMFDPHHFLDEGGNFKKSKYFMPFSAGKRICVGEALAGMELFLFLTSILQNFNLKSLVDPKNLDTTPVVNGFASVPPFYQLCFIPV
T1 sequence (P07550 whole entry): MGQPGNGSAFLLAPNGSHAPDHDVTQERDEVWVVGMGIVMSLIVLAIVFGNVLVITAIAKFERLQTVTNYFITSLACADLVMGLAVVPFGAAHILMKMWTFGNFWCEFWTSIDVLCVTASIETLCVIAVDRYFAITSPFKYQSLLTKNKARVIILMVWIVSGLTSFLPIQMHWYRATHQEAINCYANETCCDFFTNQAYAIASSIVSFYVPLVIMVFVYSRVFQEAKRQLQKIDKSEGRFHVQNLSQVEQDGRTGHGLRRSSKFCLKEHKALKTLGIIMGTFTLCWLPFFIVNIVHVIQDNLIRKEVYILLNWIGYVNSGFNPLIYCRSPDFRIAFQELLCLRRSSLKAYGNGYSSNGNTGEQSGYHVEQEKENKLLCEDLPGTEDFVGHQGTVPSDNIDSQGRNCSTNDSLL
T4 sequence (P08588 whole entry): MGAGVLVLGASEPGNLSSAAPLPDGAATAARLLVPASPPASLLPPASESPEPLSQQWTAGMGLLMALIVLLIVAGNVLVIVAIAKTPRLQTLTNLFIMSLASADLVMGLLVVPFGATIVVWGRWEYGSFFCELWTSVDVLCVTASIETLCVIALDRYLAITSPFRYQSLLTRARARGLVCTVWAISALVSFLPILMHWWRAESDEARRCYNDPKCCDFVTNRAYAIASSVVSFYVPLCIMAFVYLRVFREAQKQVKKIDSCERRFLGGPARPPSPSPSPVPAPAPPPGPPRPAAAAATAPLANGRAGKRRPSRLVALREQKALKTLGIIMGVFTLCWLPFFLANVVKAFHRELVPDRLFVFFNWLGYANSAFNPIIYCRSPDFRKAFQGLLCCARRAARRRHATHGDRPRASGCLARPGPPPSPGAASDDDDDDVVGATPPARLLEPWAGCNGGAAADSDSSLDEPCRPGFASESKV
T5 sequence (P05177 whole entry): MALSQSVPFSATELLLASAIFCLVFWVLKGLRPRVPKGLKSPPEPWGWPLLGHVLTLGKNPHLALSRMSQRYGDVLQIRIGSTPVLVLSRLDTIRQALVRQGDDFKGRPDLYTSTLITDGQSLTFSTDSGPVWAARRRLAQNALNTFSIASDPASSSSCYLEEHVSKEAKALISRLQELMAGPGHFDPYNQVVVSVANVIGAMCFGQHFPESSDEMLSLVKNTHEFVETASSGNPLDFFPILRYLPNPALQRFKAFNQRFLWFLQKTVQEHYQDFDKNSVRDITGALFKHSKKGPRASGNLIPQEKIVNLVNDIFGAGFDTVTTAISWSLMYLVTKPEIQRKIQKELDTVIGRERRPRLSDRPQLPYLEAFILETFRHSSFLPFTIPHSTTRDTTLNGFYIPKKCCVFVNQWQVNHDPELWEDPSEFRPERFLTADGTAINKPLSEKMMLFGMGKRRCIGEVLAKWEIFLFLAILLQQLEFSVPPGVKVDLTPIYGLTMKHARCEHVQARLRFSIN
Chain of CYP2D6 (P10635 whole entry): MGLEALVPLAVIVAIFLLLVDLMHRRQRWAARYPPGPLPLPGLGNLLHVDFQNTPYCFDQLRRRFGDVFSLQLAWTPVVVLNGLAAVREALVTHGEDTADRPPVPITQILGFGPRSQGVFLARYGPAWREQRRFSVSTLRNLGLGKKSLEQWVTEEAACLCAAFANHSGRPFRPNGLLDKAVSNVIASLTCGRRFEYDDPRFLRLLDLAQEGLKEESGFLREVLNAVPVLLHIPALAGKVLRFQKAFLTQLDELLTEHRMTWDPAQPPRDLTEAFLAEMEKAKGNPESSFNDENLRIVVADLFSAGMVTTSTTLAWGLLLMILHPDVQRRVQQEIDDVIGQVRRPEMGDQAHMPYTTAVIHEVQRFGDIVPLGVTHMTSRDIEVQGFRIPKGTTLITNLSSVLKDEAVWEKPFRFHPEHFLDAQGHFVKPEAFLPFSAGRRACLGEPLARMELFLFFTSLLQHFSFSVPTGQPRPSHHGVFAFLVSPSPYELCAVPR
T6 sequence (P33261 whole entry): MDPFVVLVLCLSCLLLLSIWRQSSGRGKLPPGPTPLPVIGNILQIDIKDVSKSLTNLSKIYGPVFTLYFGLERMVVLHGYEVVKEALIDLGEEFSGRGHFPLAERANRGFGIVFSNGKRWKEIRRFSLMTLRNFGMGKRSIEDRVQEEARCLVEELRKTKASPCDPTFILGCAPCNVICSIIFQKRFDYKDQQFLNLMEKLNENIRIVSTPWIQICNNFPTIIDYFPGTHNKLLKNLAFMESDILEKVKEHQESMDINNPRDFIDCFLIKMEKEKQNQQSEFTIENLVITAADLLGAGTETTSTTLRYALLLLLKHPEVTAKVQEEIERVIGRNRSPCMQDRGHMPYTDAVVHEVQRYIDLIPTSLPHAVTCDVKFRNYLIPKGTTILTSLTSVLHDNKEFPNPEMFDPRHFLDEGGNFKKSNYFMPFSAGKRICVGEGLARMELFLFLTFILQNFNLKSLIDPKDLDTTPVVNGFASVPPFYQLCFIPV

Compound	pKd (human β2-AR)	Rat β1 vs. β2 selectivity Kd,ratβ2/Kd,ratβ1 (rat β1-AR)	Kd (rat β1-AR) [nM]	Kd (rat β2-AR) [µM]	Agonist response by directly measuring ERK1/2 MAPK (human β1-AR)	β1-selectivity over the 5-HT2A receptor (5-HT2A) [fold]	pKi (5-HT2A)	hepatocyte CLint [1] [µL/min/1e6 cells]	pIC50 (CYP1A2)	pIC50 (CYP2C19)	pIC50 (CYP2C9)	pIC50 (CYP3A4/5)	pIC50 (CYP2D6)
O=C1NCc2cc(OCCNC[C@H](O)COc3ccc4c(c3)OC[C@@H](COCC3CC3)O4)ccc21 [NDD-825]	5.27	3090	4.27	13.2	did not stimulate any agonist response	1115	5.24	6	< 4.70	< 4.70	< 4.70	< 4.70	< 4.70
NC(=O)c1ccc(OCCNC[C@H](O)COc2ccc3c(c2)OC[C@@H](COCC2CC2)O3)cc1 [NDD-713]	5.05	2188	8.51	18.6	did not stimulate any agonist response	510	5.11	< 6	< 4.70	< 4.70	< 4.70	< 4.70	< 4.70
